# Data as given in US5227153A, “Use of 4-(2-oxo-3-bornylidenemethyl)benzenesulfphonic acid or its salts for the protection of hair against environmental attacking agents, and in particular against light, and process for the protection of hair using this compound” (L'Oreal, priority 1988, dated 1993).
# Assays:
# [1] = Mechanical properties of hair after exposure in natural light and artificial xenon light; conditions: natural light (sunny environment) and artificial light (xenon, SUNTEST HANAU)
# Excerpt: (§1) The 15% extension level is the weight to be applied to wet hair of given length to extend it by 15%. The higher the weight, the stronger and more elastic the hair.
# It has been possible to reveal this property by exposure in natural light (sunny environment) and artificial light (xenon light emitter in a SUNTEST HANAU type accelerated aging apparatus).
# [2] = 15% wet extension level of bleached hair after exposure to light (SUNTEST HANAU xenon apparatus)
# Protocol: as §1
# This composition is applied to bleached hair, then rinsed. The hair is then exposed to the Suntest by means of a "SUNTEST HANAU" apparatus for 120 hours. This apparatus consists of a xenon light emitter and a system of filters producing a radiation corresponding to a very large extend to solar radiation. The energy radiation is about 585 W/m^2 in the wavelength range between 300 and 830 nm (overall radiation).
# After applying this foam to bleached hair three times and without consecutive rinsing, the hair is exposed to the Suntest as described in Example 1 for 180 hours.
# Bleached hair treated with one application of this spray and not rinsed is then exposed to the Suntest under the conditions described in Example 1 for 120 hours.
# Bleached hair treated with one application of this gel and not rinsed is then exposed to the Suntest under the conditions described in Example 1 for 120 hours.
compound,measurement,setting,value
CC12CCC(C(=Cc3ccc(S(=O)(=O)O)cc3)C1=O)C2(C)C (centres unmarked) [4-(2-oxo-3-bornylidenemethyl)benzenesulphonic acid],preservation of the mechanical properties of hair from degradation by light,[1],can preserve the mechanical properties of hair
same,improvement in the mean value of the 15% wet extension level,"[2]; rinse composition with 5 g per 100 g of the acid, rinsed, Suntest 120 hours, compared to same rinse containing no acid",very significantly improved
same,improvement in the mean value of the 15% wet extension level,"[2]; styling foam with 1.5 g per 100 g of the acid (90 g composition + 10 g propellant), applied three times, not rinsed, Suntest 180 hours, compared to same foam containing no acid",appreciable improvement
same,improvement in the mean value of the 15% wet extension level,"[2]; styling gel with 0.4 g per 100 g of the acid, one application, not rinsed, Suntest 120 hours, compared to same gel without the acid",appreciable improvement
same,improvement in the mean value of the 15% wet extension level,"[2]; styling spray with 1 g per 100 g of the acid, one application, not rinsed, Suntest 120 hours, compared to same spray containing no acid",significant improvement
